Reference: US4639510A, “(1-S-acetamidomethyl cysteine, 7-alanine)calcitonin” (Armour Pharmaceutical Company, priority 1985, dated 1987)

Test system: serum calcium concentration
Test: Biological assay of calcitonin analogs in vivo: reduction of serum calcium concentration vs synthetic salmon calcitonin standard
Design: species or system Rats
Procedure: Biological Assay Of Calcitonin Analogs In Vivo
The biological potency of [S-Acm-Cys',Ala^7 ]salmon calcitonin was determined by comparing the reduction of serum calcium concentration which followed administration by graded doses of [S-Acm-Cys^1,Ala^7 ]SCT and synthetic salmon calcitonin standard. Rats were divided into four groups of seven animals, and each group was assigned at random to a dose of standard or test solution. Low and high doses were chosen from the linear portion of the dose-response curve. For the salmon calcitonin standard, the values were 0.7 and 2.1 mcg. peptide/100 g. body weight (BW). This dose approximates 3 and 9 MU/100 g. BW. Peptides were given by subcutaneous injection (0.2 ml/100 g. BW) and blood was withdrawn 1 hour later for serum calcium determination. Sera are processed and analyzed within two hours of collection. […]. Results were analyzed by a 2×2 parallel line assay [Gaddum, J. H., J. Pharm. Pharmacol., 6, 345 (1953)]. The standard salmon calcitonin used was independently determined to contain greater than 4,000 IU/mg. [S-Acm-Cys^1,Ala^7 ]SCT assayed at 6300 IU/mg, (95% 5800-6900).

| Substance | biological potency of the standard (independently determined content) (standard salmon calcitonin used in the assay, independently determined) | biological potency (rats, subcutaneous injection, serum calcium 1 hour later, 2×2 parallel line assay vs salmon calcitonin standard, 95% 5800-6900) |
| --- | --- | --- |
| Salmon calcitonin | greater than 4,000 IU/mg | – |
| [S-Acm-Cys^1,Ala^7)]salmon calcitonin [[S-Acm-Cys^1,Ala^7]SCT] | – | 6300 IU/mg |
